The record followed here is ChEMBL document CHEMBL1201862, “PubChem BioAssay data set” (2004).

For one experiment, the target named is Wee1-like protein kinase (Homo sapiens, UniProt P30291). Nature of the experiment: HeLa cell cycle G2/M accumulation – FACS, mechanism study for Wee1 degradation inhibitor project, late-stage follow-up, panel member Wee1 Degradation (AID 2088).
Experiment [1] deals with G2/mitotic-specific cyclin-B1 (Homo sapiens, UniProt P14635). Put plainly: HeLa cell cycle G2/M accumulation – FACS, mechanism study for Wee1 degradation inhibitor project, late-stage follow-up, panel member Cyclin B Degradation (AID 2088).
G2/mitotic-specific cyclin-B1, sequence (P14635 whole entry, the tested form may be a part): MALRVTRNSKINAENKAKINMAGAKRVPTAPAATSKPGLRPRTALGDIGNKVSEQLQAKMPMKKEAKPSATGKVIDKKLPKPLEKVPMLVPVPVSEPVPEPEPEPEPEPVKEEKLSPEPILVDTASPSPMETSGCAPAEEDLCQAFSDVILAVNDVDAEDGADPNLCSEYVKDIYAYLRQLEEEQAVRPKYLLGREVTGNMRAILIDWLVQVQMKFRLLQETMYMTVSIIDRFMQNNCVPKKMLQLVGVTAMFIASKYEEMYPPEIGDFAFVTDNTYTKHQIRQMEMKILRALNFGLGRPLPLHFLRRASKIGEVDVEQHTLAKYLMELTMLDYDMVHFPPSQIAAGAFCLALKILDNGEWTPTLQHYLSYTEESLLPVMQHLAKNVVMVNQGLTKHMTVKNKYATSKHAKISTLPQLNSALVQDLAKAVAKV
The target of experiment [2] is T1, Carboxy-terminal domain RNA polymerase II polypeptide A small phosphatase 1 (Homo sapiens, UniProt Q9GZU7).
T1 sequence (Q9GZU7 whole entry): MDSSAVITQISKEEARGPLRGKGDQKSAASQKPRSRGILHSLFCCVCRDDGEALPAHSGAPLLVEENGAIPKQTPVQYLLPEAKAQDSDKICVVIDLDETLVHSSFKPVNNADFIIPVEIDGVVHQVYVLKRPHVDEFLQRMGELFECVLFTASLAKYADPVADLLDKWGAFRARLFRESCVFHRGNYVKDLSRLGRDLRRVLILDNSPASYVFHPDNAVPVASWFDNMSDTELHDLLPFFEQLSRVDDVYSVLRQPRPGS
Put plainly: CTDSP1 inhibitors, concentration-response, biochemical, absorbance readout, ultra-high-throughput screen actives (AID 540297). In kind it is functional.

The target in experiment [3] is Polyadenylate-binding protein 1 (Homo sapiens, UniProt P11940). Nature of the experiment: PABP inhibition in translation initiation, SAR follow-up (AID 435018). In kind it is functional.
Polyadenylate-binding protein 1, sequence (P11940 whole entry): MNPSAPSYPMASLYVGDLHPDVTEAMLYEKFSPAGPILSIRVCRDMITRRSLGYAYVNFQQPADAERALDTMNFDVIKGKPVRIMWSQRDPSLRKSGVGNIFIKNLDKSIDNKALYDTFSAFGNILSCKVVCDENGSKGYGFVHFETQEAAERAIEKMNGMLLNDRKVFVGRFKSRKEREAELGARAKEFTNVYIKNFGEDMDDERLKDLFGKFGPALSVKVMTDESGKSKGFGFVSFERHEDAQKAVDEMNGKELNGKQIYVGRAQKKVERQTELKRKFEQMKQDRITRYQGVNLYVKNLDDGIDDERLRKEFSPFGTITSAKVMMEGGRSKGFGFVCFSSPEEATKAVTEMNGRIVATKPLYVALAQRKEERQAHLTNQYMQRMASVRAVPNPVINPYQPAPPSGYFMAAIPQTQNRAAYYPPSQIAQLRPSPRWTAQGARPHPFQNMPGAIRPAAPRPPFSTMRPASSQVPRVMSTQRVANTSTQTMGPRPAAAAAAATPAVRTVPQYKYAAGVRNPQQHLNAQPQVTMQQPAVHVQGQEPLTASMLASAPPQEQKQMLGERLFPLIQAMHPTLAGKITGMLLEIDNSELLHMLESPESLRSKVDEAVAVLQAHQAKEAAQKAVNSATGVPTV
The target in experiment [4] is Eukaryotic translation initiation factor 4H (Homo sapiens, UniProt Q15056). Nature of the experiment: inhibitors of translation initiation factor eIF4H – SAR follow-up (AID 435011). In kind it is functional.
Experiment [5] deals with T2, Long-chain-fatty-acid--AMP ligase FadD28 (Mycobacterium tuberculosis, UniProt P9WQ59).
T2 sequence (P9WQ59 whole entry): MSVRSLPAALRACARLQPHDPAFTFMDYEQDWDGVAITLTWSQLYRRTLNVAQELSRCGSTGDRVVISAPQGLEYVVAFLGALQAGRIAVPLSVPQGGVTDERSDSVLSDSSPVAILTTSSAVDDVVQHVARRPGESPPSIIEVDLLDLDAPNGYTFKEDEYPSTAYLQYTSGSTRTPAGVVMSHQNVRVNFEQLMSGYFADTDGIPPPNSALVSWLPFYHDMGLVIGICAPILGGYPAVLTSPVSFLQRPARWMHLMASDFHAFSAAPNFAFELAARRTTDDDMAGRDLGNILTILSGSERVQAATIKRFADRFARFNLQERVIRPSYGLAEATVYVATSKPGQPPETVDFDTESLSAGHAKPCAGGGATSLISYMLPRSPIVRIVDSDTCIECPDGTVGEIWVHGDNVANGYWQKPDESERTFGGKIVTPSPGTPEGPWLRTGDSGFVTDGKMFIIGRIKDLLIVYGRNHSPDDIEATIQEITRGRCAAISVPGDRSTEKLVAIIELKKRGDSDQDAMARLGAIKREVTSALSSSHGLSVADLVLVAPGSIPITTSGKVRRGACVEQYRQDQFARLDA
Nature of the experiment: Fluorescence polarization aasay to screen for inhibitors that compete for the binding of FadD28 to a bisubstrate Measured in Biochemical System Using Plate Reader - 2147-01_Inhibitor_Dose_CherryPick_Activity. The experiment is classed as functional, Mycobacterium tuberculosis H37Rv. For orientation: In fluorescence polarisation assays a small probe gives low polarisation when free and higher when bound to something large.

Experiment [6] has as its target Intestinal-type alkaline phosphatase (Homo sapiens, UniProt P09923). Nature of the experiment: Dose Response confirmation of uHTS hits from a small molecule inhibitors of human intestinal alkaline phosphatase via a luminescent assay. [Related pubchem assays (depositor defined):AID2544, AID2574]. The experiment is classed as functional.
Experiment [7] can be described thus: Cytotoxicity screening for potential Inhibitors of Bacterial Capsule Biogenesis. [Related pubchem assays (depositor defined):AID488970]. In kind it is functional.
A short description of experiment [8]: Trypanosoma cruzi growth suppression in host cells – NIH3T3 host cells, beta-gal luminescence, confirmation (AID 2044).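 Further: intracellular parasites grown in NIH/3T3 mouse fibroblasts as host cells; luminescent beta-galactosidase reporter signal from transgenic T. cruzi replicating inside host cells; inhibitors lower the luminescence signal.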 The experiment is classed as functional, cell-based.
Experiment [9] in a line: NIH3T3 cell viability loss – ATP luminescence, mouse fibroblasts, counter-screen, dose response (AID 2010).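 Further: cells exposed to compound for about 90 hours before reading.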 The experiment is classed as functional, cell-based. For orientation: A counterscreen serves to expose hits that act by an unwanted route or on another target.
Experiment [10] concerns the target T3, Ubiquitin-conjugating enzyme E2 N (Homo sapiens, UniProt P61088).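 Further: Dose-response confirmation in a TR-FRET assay detecting UBC13-driven polyubiquitin chain formation, inhibition measured.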
T3 sequence (P61088 whole entry): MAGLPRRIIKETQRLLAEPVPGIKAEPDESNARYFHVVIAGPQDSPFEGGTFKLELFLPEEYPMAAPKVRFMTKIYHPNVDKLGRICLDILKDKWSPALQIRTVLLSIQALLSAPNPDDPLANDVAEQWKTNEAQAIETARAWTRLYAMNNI
In kind it is functional.

A further experiment concerns INS1. Put plainly: INS-1E survival protection against cytokine death – cell-based, luminescence, retest, dose response (AID 449756).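 Further: cell death triggered by IL-1 beta plus TNF-alpha plus IFN-gamma mixture; protective hits raise ATP signal compared with cytokine alone wells.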 The experiment is classed as functional. The settings on record: Rattus norvegicus.
Experiment [11] can be described thus: blockers of SFLLRN-triggered platelet ATP secretion – cell-based, human platelets, luminescence, dry powder, dose response (AID 493100). The experiment is classed as functional.

The structures appear in SMILES notation. The source made the active and inactive calls.

Wee1-like protein kinase, sequence (P30291 whole entry): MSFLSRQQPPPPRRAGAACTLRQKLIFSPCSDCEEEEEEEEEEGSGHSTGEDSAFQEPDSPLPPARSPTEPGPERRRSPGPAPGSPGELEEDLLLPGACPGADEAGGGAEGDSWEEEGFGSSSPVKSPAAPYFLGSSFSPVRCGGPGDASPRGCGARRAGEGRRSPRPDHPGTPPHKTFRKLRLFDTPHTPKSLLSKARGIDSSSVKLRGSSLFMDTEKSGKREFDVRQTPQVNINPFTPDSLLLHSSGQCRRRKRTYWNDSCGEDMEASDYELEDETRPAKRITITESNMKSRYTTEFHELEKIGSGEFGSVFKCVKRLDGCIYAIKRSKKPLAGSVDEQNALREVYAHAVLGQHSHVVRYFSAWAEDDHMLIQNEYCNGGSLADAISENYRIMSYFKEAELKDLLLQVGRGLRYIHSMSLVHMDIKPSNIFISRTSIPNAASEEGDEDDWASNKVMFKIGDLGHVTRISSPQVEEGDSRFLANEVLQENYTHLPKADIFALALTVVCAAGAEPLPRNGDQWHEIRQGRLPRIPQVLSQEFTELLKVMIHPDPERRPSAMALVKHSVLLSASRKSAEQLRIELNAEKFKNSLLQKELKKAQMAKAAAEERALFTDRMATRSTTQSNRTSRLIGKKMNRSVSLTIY
Intestinal-type alkaline phosphatase, sequence (P09923 whole entry): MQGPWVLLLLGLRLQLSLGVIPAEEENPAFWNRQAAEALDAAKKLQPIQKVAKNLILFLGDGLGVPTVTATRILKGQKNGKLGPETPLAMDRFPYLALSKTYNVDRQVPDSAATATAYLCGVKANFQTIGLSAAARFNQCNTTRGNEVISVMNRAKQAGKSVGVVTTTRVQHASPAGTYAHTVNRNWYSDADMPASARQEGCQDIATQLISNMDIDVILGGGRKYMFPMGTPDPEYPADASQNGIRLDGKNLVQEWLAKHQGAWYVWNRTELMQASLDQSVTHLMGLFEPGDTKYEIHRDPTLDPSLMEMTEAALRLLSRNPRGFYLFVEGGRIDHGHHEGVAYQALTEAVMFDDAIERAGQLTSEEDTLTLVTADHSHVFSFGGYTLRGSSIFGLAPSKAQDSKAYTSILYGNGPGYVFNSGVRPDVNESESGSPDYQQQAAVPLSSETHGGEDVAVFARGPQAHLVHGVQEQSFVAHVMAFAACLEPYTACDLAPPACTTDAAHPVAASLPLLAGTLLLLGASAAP

In the case of `Cc1cc(=O)[nH]c(-n2nc(C)cc2NC(=O)c2cccs2)n1`, the EC50 (at Wee1-like protein kinase; in experiment [1]) was > 49.7 µM (inactive) each time.
Regarding `Cc1cccc(NC(=O)CN2C(=O)N/C(=C\c3ccccc3OCc3ccc(C(=O)O)cc3)C2=O)c1`, the IC50 (usually the concentration at which inhibition is half-maximal) in [2] was 6.07 µM (active); in experiment [3] it was 77.6 µM (active); in [4], 17.5 µM (active). In addition, the AC50 (as a rule, the concentration giving half of the maximal activity seen) in experiment [5] was 9.77 µM (active).
Consider `Cc1[nH]n(-c2nc(-c3ccccc3F)cc(=O)[nH]2)c(=O)c1CCO`, for which the IC50 in experiment [6] was 1.07 µM (active).
Consider `N=C(N)N/N=C/c1ccc(OCc2ccccc2)cc1`, for which the CC50 (usually the concentration that lowers cell viability or growth by half) in experiment [7] was 10.4 µM (active). Also, the EC50 – broadly, the concentration at which the effect is half-maximal – in experiment [8] is 920 nM (active); in [9] it was > 60 µM (not active). Further, the IC50 in experiment [10] is > 20 µM (inactive). Further, the AC50 with INS1 was 6.57 µM (active).
Regarding `CCCC(=O)Nc1cccc(NC(=O)c2ccccc2C)c1`, the AC50 in experiment [11] is 5.5 µM (active).
